1 compound from patent US20090047682A1, “Method of detecting and predicting bronchodilatory response to beta agonist” (COUNCIL OF SCIENTIFIC AND INDUSTRIAL RESEARCH, priority 2004, published 2009) can be followed below.

Each structure is given as a SMILES string.

The subject of the test is β2AR. As to conditions: Indian population; χ2=11.28, df=2, p=0.004.

Take `CC(C)(C)NCC(O)c1ccc(O)c(CO)c1` (stereo not shown) [salbutamol]: the “association of responder status to treatment with genotype at β2AR gene” value was “strongly associated”.
